Results taken from patent US20150315211A1, “SMALL MOLECULES FOR THE MODULATION OF MCL-1 AND METHODS OF MODULATING CELL DEATH, CELL DIVISION, CELL DIFFERENTIATION AND METHODS OF TREATING DISORDERS” (priority 2010, published 2015).
Read-outs that look alike come from different tables or passages of the source.

What was measured:
[1] = target: T1, MCL-1ΔNΔC (Homo sapiens, UniProt Q07820); conditions: pre-incubation, re-concentration, FP with FITC-BID BH3
Method: A small sample was taken as a pre-dilution control. Compound-treated protein and unmodified protein were then diluted to a volume of 20 mL, and subsequently re-concentrated to 500 mL using 10K centrifugal filter units (Amicon). FP binding analysis was performed as described above by adding serial dilutions of compound-modified MCL-1 and unmodified MCL-1, both before and after dilution, followed by FITC-BID BH3 (15 nM) to a 96-well black flat bottom plate (Costar). FP measurements and analyses are then performed as described above.
Briefly, MCL-1ΔNΔC was pre-incubated with the small molecule inhibitors prior to dilution with buffer. The solution was concentrated to its original volume and fluorescence polarization was performed. Compounds that bind covalently will remain bound to the protein, whereas compounds that bind reversibly will be exchanged upon dilution.

[2] = test system: MCL-1ΔNΔC; test: High-throughput competitive FP binding screen, FITC-MCL-1 SAHB/MCL-1ΔNΔC interaction
[3] = target: BCL-XLΔC (Homo sapiens, UniProt Q07817); test: High-throughput competitive FP binding screen, FITC-BAD BH3/BCL-XLΔC interaction
BCL-XLΔC, sequence (Q07817 1-212 limits assumed, stated change not applied): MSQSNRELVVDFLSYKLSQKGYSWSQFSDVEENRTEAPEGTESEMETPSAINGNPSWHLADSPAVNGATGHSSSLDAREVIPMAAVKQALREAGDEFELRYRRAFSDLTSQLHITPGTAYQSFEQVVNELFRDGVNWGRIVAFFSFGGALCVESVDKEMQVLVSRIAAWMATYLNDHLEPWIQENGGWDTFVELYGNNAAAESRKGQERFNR

[4] = target: T1, MCL-1ΔNΔC; test: High-throughput competitive FP binding screen, FITC-MCL-1 SAHB/MCL-1ΔNΔC interaction; parameters: the C-terminal alpha-helix was deleted from each of these constructs; GST (N, cleaved yes); made in house
[5] = selectivity for MCL-1ΔNΔC over BCL-XLΔC targeting (BCL-XL % Bound minus MCL-1 % Bound)
[6] = FITC-BAD BH3/BCL-XLΔC interaction pair, competitive FP screen
[7] = FITC-MCL-1 SAHB/MCL-1ΔNΔC interaction pair, competitive FP screen

T1 sequence (Q07820 172-320 limits assumed, stated change not applied): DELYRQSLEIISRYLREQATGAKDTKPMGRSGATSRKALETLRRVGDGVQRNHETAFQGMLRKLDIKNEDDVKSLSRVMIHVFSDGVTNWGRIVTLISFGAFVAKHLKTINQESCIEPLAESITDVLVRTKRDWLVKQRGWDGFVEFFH

Compound	mechanism of binding to MCL-1ΔNΔC upon dilution (reversible vs covalent) [1]	Spec Values [2, 5]	BCL-XL % Bound [3, 6]	MCL-1% Bound [4, 7]	Spec Values [2]	BCL-XL % Bound [3]	MCL-1% Bound [4]
Cc1cc2c(C(C)C)c(O)c(O)c(C=O)c2c(O)c1-c1c(C)cc2c(C(C)C)c(O)c(O)c(C=O)c2c1O [Gossypol]	bound reversibly						
CCOc1cccc(/C=N/n2c(S)nnc2-c2ccc(Cl)cc2)c1O		53.75	96.58%	42.83%			
O=c1oc2ccccc2c2oc3cc(O)c(O)cc3c12		72.31	84.9%	12.59%			
CC1=C(C#N)C(=O)N(CCc2ccccc2)C(=O)/C1=C/c1ccc(-c2ccc3c(c2)COC3=O)o1		53.97	84.79%	30.81%			
Cn1cc2c(n1)-c1cc(Cl)ccc1SC2		66.16	89.61%	23.45%			
Cc1cc2c(n1-c1ccc(C(=O)O)cc1)CCCC2		71.18	65.33%	−5.85%			
CC(C)CSC1=NSC2=NC(=O)/C(=C\c3ccc(SCc4ccco4)o3)C(=N)N12		45.2	82.8%	37.61%			
O=C(O)C1Nc2c(I)cccc2C2C=CCC12 (stereo not shown)		64.16	100.3%	36.12%			
CCOC(=O)C1=C(Nc2cccc(Cl)c2)S/C(=C\c2ccco2)C1=O		63	111.2%	48.22%			
Cc1ncc(CO)c2c1Oc1nc(-c3ccccc3)[nH]c(=S)c1C2		65.07	131.2%	66.14%			
O=C(OCC1O[C@H](OC(=O)c2cc(O)c(O)c(OC(=O)c3cc(O)c(O)c(O)c3)c2)[C@H](OC(=O)c2cc(O)c(O)c(OC(=O)c3cc(O)c(O)c(O)c3)c2)[C@@H](OC(=O)c2cc(O)c(O)c(OC(=O)c3cc(O)c(O)c(O)c3)c2)[C@@H]1OC(=O)c1cc(O)c(O)c(OC(=O)c2cc(O)c(O)c(O)c2)c1)c1cc(O)c(O)c(OC(=O)c2cc(O)c(O)c(O)c2)c1 (stereo partly shown) [drawing 25]		82.32	98.26%	15.94%			
Cc1cc2c(C(C)C)c(O)c(O)c(C=O)c2c(O)c1-c1c(C)cc2c(C(C)C)c(O)c(O)c(C=O)c2c1O [drawing 158]					97.07	101%	3.955%
Cc1c(Cl)cccc1N1C(=O)CC(Sc2nnnn2-c2ccccc2)C1=O (stereo not shown)		45.07	97.5%	52.43%			
CCOc1ccc(S(=O)(=O)/N=C2/C=C(Sc3nc[nH]n3)C(=O)c3ccccc32)cc1		101.1	103.4%	2.333%			
O=c1oc2c(O)c(O)cc3c(=O)oc4c(O)c(O)cc1c4c23 [drawing 20]		89.32	90.58%	1.26%			
N#CC1=C(c2ccc(Cl)cc2)COC1=O		60.84	88.12%	27.28%			
O=C(/C=C/c1ccco1)NC(=S)Nc1ccccc1C(F)(F)F		52.25	99.25%	47.01%			
O=C(O)C(Cc1ccccc1)N1C(=O)/C(=C/C=C/c2ccco2)SC1=S (stereo not shown)					97.44	87.83%	−9.611%
CC(C)C(C(=O)O)N1C(=O)/C(=C/C=C/c2ccco2)SC1=S (stereo not shown)		76.69	102.8%	26.08%			
Oc1c(Cl)cc(Cl)cc1Sc1cc(Cl)cc(Cl)c1Cl		73.22	100.4%	27.2%			
CC(C)Cn1c2ccc(Cl)cc2c2nc3ccccc3nc21		57.12	89.44%	32.32%			
O=C(ON1C(=O)CCC1=O)c1ccc(Cl)cc1Cl		66.25	96.73%	30.48%			
O=C1C(Sc2nc[nH]n2)=C/C(=N/S(=O)(=O)c2cccs2)c2ccccc21		73.41	93.16%	19.75%			
CN1CCC(N(C)Cc2cc(C(C)(C)C)c(O)c(C(C)(C)C)c2)CC1		45.97	109.3%	63.36%			
[Na+].[Na+].[O-]c1c(Cl)cc(Cl)cc1Sc1cc(Cl)cc(Cl)c1[O-]		73.22	100.4%	27.2%			
O=c1cc(-c2ccccc2)oc2cc(O)c(O)c(O)c12 [drawing 161]		93.84	104.2%	10.32%			
O=C1C(Sc2nc[nH]n2)=C/C(=N/S(=O)(=O)c2ccc(F)cc2)c2ccccc21		91.16	96.12%	4.952%			
